# Experimental data as given in patent US20250268897A1, “USE OF HETEROCYCLIC COMPOUND IN TREATING DISEASES RELATED TO KINASE DRUG-RESISTANT MUTATION AND METHOD THEREFOR” (Sichuan Kelun-Biotech Biopharmaceutical Co., Ltd., priority 2021, published 2025).
# Tests used:
# RET-G810R enzyme = RET-G810R enzyme (Homo sapiens (Human), UniProt P07949, G810R); assay: RET inhibition experiment, HTRF KinEASE-TK kit, RET-G810R; assay type: biochemical; conditions: compound concentration 300 nM
# RET-G810S enzyme = RET-G810S enzyme (Homo sapiens (Human), UniProt P07949, G810S); assay: RET inhibition experiment, HTRF KinEASE-TK kit, RET-G810S; assay type: biochemical; conditions: for Inhibition rate on RET-G810S (%) / inhibition at 0.3 µM: compound concentration 300 nM; for inhibition at 0.3 µM: read-out: Inhibition rate on RET-G810S (%)
# RET-G810S enzyme, sequence (P07949 29-1114 G810S): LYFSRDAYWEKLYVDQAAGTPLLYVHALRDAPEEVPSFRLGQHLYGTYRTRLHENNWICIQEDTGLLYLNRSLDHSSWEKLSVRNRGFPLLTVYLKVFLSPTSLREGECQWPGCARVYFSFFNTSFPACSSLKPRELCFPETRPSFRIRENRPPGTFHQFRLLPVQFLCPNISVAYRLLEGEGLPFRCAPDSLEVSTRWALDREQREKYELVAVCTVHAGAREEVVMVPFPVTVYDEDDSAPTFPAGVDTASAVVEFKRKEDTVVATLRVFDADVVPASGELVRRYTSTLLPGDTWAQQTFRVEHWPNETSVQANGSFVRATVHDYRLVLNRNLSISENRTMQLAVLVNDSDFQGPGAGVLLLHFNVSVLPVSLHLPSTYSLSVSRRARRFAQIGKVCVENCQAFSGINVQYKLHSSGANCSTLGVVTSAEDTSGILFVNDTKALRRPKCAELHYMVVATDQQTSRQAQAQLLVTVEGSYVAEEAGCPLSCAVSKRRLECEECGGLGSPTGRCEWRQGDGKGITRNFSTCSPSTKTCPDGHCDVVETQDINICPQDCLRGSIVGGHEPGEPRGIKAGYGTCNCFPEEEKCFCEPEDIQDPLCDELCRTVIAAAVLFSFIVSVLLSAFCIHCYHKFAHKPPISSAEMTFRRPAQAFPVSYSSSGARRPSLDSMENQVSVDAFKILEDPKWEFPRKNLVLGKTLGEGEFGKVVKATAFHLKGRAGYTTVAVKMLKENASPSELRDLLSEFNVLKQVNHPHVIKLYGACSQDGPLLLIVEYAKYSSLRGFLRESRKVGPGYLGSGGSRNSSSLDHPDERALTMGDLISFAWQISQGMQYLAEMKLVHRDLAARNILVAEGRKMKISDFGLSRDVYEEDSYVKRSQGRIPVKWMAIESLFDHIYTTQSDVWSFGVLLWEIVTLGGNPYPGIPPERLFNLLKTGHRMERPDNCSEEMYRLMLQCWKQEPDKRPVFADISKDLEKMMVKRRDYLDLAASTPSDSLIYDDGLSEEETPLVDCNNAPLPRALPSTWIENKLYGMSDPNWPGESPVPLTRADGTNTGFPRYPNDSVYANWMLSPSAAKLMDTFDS
# RET-G810R enzyme, sequence (P07949 29-1114 G810R): as the sequence (P07949 29-1114 G810S) above, with S782R counted along it
SMILES,Inhibition rate on RET-G810S (%) (RET-G810S enzyme),also measured
Cc1ccc(CN2C3CC2CN(c2ccc(-c4nc(C)cc(Nc5cc(C)[nH]n5)n4)cn2)C3)cc1 [Compound 2],–,Inhibition rate on RET-G810R (%) (RET-G810R enzyme): 70.41 ± 4.57%
Cc1cc(Nc2cc(C)[nH]n2)nc(-c2ccc(N3CC4CC(C3)N4Cc3ccc(Cl)cn3)nc2)n1 [Compound 3],–,Inhibition rate on RET-G810R (%) (RET-G810R enzyme): 72.49 ± 3.15%
Cc1cc(Nc2cc(C)[nH]n2)nc(-c2ccc(N3CC4CC(C3)N4Cc3ccc(-n4cc(F)cn4)nc3)nc2)c1 [Compound 13],97.21 ± 1.01%,–
"Cc1cc(Nc2cc(C)[nH]n2)nc(-c2ccc(N3CC4CC(C3)N4Cc3ccc(-n4nccc4C4CC4)cc3)nc2)n1 [Compound 14, 2-(6-(6-(4-(5-cyclopropyl-1H-pyrazol-1-yl)benzyl)-3,6-diazabicyclo [3.1.1]heptan-3-yl)pyridin-3-yl)-6-methyl-N-(5-methyl-1H-pyrazol-3-yl) pyrimidin-4-amine]",–,inhibition at 0.3 µM (RET-G810S enzyme): 92.56 ± 0.08%
"Cc1cc(Nc2cc(C)[nH]n2)nc(-c2ccc(N3CC4CC(C3)N4Cc3ccc(-n4ccc(C5CC5)n4)cc3)nc2)n1 [Compound 15, 2-(6-(6-(4-(3-cyclopropyl-1H-pyrazol-1-yl)benzyl)-3,6-diazabicyclo [3.1.1]heptan-3-yl)pyridin-3-yl)-6-methyl-N-(5-methyl-1H-pyrazol-3-yl) pyrimidin-4-amine]",–,inhibition at 0.3 µM (RET-G810S enzyme): 97.22 ± 0.39%
"Cc1cc(Nc2cc(C)[nH]n2)nc(-c2ccc(N3CC4CC(C3)N4Cc3ccc(-n4ccc(C(C)(C)O)n4)nc3)nc2)n1 [Compound 24, 2-(1-(5-((3-(5-(4-methyl-6-((5-methyl-1H-pyrazol-3-yl)amino)pyrimidin-2-yl)pyridin-2-yl)-3,6-diazabicyclo [3.1.1]heptan-6-yl)methyl)pyridin-2-yl)-1H-pyrazol-3-yl) propan-2-ol]",–,IC50 (RET-G810S enzyme; Table 4): 57.2 nM
"Cc1cc(Nc2cc(C)[nH]n2)nc(-c2ccc(N3CC4CC(C3)N4Cc3ccc(-n4nc(F)cc4C)nc3)nc2)n1 [Compound 28, 2-(6-(6-((6-(3-fluoro-5-methyl-1H-pyrazol-1-yl)pyridin-3-yl)methyl)-3,6-diazabicyclo [3.1.1]heptan-3-yl)pyridin-3-yl)-6-methyl-N-(5-methyl-1H-pyrazol-3-yl) pyrimidin-4-amine]",–,inhibition at 0.3 µM (RET-G810S enzyme): 90.8 ± 1.24%
"Cc1cc(Nc2cc(C)[nH]n2)nc(-c2ccc(N3CC4CC(C3)N4Cc3ccc(-c4ccco4)nc3)nc2)n1 [Compound 29, 2-(6-(6-((6-(furan-2-yl)pyridin-3-yl)methyl)-3,6-diazabicyclo [3.1.1]heptan-3-yl)pyridin-3-yl)-6-methyl-N-(5-methyl-1H-pyrazol-3-yl) pyrimidin-4-amine]",–,inhibition at 0.3 µM (RET-G810S enzyme): 93.21 ± 0.91%

# Now from value to molecule, other results behind:
Inhibition rate on RET-G810S (%) (RET-G810S enzyme),SMILES,also measured
98.89 ± 0.18%,Cc1cnn(-c2ccc(CN3C4CC3CN(c3ccc(-c5nc(C)cc(Nc6cc(C)[nH]n6)n5)cn3)C4)cn2)c1 [Compound 4],Inhibition rate on RET-G810R (%) (RET-G810R enzyme): 78.98 ± 0.24%
91.80 ± 0.98%,Cc1cc(Nc2cc(C)[nH]n2)nc(-c2ccc(N3CC4CC(C3)N4Cc3ccc(-n4cc(F)cn4)cc3)nc2)n1 [Compound 7],–
83.73 ± 3.16%,Cc1cc(Nc2cc(C)[nH]n2)nc(-c2ccc(N3CC4CC(C3)N4Cc3ccc(-n4ccc(F)n4)nc3)nc2)n1 [Compound 8],–
90.87 ± 1.13%,Cc1cc(Nc2cc(C)[nH]n2)nc(-c2ccc(N3CC4CC(C3)N4Cc3ccc(-n4nccc4C4CC4)nc3)nc2)n1 [Compound 11],–
85.27 ± 0.37%,Cc1cc(Nc2cc(C)[nH]n2)nc(-c2ccc(N3CC4CC(C3)N4Cc3ccc(-c4ccc(C)o4)nc3)nc2)n1 [Compound 16],–
90.64 ± 0.68%,Cc1cc(Nc2cc(C)[nH]n2)nc(-c2ccc(N3CC4CC(C3)N4Cc3ccc(-n4ccc(F)n4)cc3)nc2)n1 [Compound 17],–
97.26 ± 0.72%,Cc1cc(Nc2cc(C)[nH]n2)nc(-c2ccc(N3CC4CC(C3)N4Cc3ccc(-c4ccn[nH]4)nc3)nc2)n1 [Compound 25],–
97.83 ± 0.32%,Cc1cc(Nc2cc(C)[nH]n2)nc(-c2ccc(N3CC4CC(C3)N4Cc3ccc(-c4cscn4)nc3)nc2)n1 [Compound 26],–
